# Test results from US6083922A (priority 1997, dated 2000).
# Like-named read-outs stand apart in the source and are kept apart here.
# Assays:
# [1] = test system: Multidrug-Resistant Strains of M. tuberculosis; experiment: microbe, parasite or virus in culture; format: cell-based, Mycobacterium tuberculosis; conditions: for MIC: Mycobacterium tuberculosis
# [2] = test system: drug-sensitive and multidrug-resistant strains of M. tuberculosis; experiment: Survey of tobramycin MICs; format: cell-based; conditions: Mycobacterium tuberculosis
structure (smiles),measurement,setting,value
NC[C@H]1O[C@H](O[C@H]2[C@H](O)[C@@H](O[C@H]3O[C@H](CO)[C@@H](O)[C@H](N)[C@H]3O)[C@H](N)C[C@@H]2N)[C@H](N)C[C@@H]1O [tobramycin],sensitivity of multidrug-resistant strains to tobramycin,[1],sensitive and nonresistant
same,MIC,"[1]; read-out: MIC Tobramycin, strain TN565 (resistant to INH, RIF, SM, KAN)",> 128 µg/mL
same,MIC,"[1]; read-out: MIC Tobramycin, strain TN576 (resistant to INH, RIF, SM, EMB, KAN)",> 128 µg/mL
same,MIC,"[1]; read-out: MIC Tobramycin, strain TN587 (resistant to INH, RIF, SM, EMB, KAN)",> 128 µg/mL
same,MIC,"[1]; read-out: MIC Tobramycin, strain TN702 (resistant to INH, SM)",4 µg/mL
same,MIC,"[1]; read-out: MIC Tobramycin, strain TN715 (resistant to INH, RIF, SM)",4 µg/mL
same,MIC,"[1]; read-out: MIC Tobramycin, strain TN768 (resistant to INH, RIF, SM, EMB)",8 µg/mL
same,MIC,"[1]; read-out: MIC Tobramycin, strain TN1195 (resistant to INH, SM)",4 µg/mL
same,MIC,"[1]; read-out: MIC Tobramycin, strain TN1314 (resistant to INH, RIF)",8 µg/mL
same,MIC,"[1]; read-out: MIC Tobramycin, strain TN1811 (resistant to INH, RIF, SM, EMB)",4 µg/mL
same,MIC,"[1]; read-out: MIC Tobramycin, strain TN2015 (resistant to INH, RIF, SM, KAN)",> 128 µg/mL
same,MIC,"[1]; read-out: MIC Tobramycin, strain TN2557 (resistant to INH, RIF, SM)",8 µg/mL
same,MIC,"[1]; read-out: MIC Tobramycin, strain TN3806 (resistant to INH, RIF, SM, EMB, KAN)",> 128 µg/mL
same,MIC,[1]; read-out: activity against multidrug-resistant strains,4 to 8 µg/mL
same,MIC,[2],> 128 µg/mL
same,MIC,[2]; read-out: minimal inhibitory concentrations (MICs),≤ 8 µg/mL
